Source: patent US20240124451A1, “PHTHALAZINE DERIVATIVES USEFUL AS INHIBITORS OF NOD-LIKE RECEPTOR PROTEIN 3” (Merck Sharp & Dohme LLC, priority 2022, published 2024)

Target: T1, NLRP3 inflammasome (Homo sapiens, UniProt Q96P20)
T1 construct: host or cells: THP-1 human monocytic cells, PMA-treated, stimulated with gramicidin
Assay: ASC-SPECK formation in THP-1 cells after gramicidin stimulation (NLRP3 inflammasome activation)
Type: cell-based
Conditions: PMA-treated human monocytic THP-1 cells, compound 1 h before 12.5 ug/ml gramicidin, 3 h, ASC SPECK imaging; read-out: EC50 (nM) for Examples that inhibit NLRP3 inflammasome activation
Method: The ability of compounds to inhibit NLRP3 inflammasome activation was determined in vitro by monitoring formation of the ASC-SPECK in human monocytic THP-1 cells after stimulation. THP-1 cells (ATCC catalog #TIB-202) were maintained in complete growth media containing Roswell Park Memorial Institute RPMI (ATCC catalog #30-2001), 10% heat inactivated fetal bovine serum, 1× penicillin/streptomycin and 0.05 mM 2-mercaptoethanol. At the start of the assay, undifferentiated THP-1 cells were plated at a density of 20,000 cells per well in a 384-well plate (Poly-D-lysine coated Cell Carrier Ultra microplate, Perkin Elmer catalog #6057500) in complete growth media supplemented with 10 ng/ml phorbol 12-myristate 13-acetate (PMA; Sigma catalog #P8139), and then incubated overnight. The next day, media was replaced with assay media [RPMI (Gibco catalog #11875-093), 0.01% bovine serum albumin (BSA)]. Compounds were serially diluted in DMSO and then added to wells one hour prior to the addition of 12.5 ug/ml Gramicidin (Enzo Lifescience, catalog #ALX-350-233-M005). All incubations were carried out at 37° C. (5% CO2/95% air). Following a 3-hour treatment with gramicidin, cells are fixed with 4% paraformaldehyde and stored at 4° C. until immunofluorescence staining.
Immunofluorescence staining: Anti-ASC antibody (MBL catalog #D086-3) was desalted and labeled with Alexa 488 antibody labeling kit (Thermo catalog #A20181) prior to use as described below. After fixation, the following steps were carried out at room temperature. Cells were first permeabilized with 0.3% Triton X-100 in phosphate-buffered saline (PBS) for 15 minutes and then incubated in blocking buffer containing 5% goat serum, 0.3% tween-20 and 0.03% sodium azide in PBS for 1 hour. Cells were stained with a mixture of ASC-Alexa 488 antibody (diluted 1:200 in blocking buffer) and nuclear stain DRAQ5 (1:5000 in blocking buffer, Thermo catalog #62251) in blocking buffer for 1 hour. Following a wash with 0.3% Tween-20 in PBS, plates were imaged with an Opera Phenix High Content Screening System. The number of DRAQ5 positive cells containing ASC SPECKS were quantified in each well.
Data analysis: EC50 values were calculated by standard curve-fitting analysis using an internally developed program in TIBCO Spotfire software.

T1 sequence (Q96P20 whole entry): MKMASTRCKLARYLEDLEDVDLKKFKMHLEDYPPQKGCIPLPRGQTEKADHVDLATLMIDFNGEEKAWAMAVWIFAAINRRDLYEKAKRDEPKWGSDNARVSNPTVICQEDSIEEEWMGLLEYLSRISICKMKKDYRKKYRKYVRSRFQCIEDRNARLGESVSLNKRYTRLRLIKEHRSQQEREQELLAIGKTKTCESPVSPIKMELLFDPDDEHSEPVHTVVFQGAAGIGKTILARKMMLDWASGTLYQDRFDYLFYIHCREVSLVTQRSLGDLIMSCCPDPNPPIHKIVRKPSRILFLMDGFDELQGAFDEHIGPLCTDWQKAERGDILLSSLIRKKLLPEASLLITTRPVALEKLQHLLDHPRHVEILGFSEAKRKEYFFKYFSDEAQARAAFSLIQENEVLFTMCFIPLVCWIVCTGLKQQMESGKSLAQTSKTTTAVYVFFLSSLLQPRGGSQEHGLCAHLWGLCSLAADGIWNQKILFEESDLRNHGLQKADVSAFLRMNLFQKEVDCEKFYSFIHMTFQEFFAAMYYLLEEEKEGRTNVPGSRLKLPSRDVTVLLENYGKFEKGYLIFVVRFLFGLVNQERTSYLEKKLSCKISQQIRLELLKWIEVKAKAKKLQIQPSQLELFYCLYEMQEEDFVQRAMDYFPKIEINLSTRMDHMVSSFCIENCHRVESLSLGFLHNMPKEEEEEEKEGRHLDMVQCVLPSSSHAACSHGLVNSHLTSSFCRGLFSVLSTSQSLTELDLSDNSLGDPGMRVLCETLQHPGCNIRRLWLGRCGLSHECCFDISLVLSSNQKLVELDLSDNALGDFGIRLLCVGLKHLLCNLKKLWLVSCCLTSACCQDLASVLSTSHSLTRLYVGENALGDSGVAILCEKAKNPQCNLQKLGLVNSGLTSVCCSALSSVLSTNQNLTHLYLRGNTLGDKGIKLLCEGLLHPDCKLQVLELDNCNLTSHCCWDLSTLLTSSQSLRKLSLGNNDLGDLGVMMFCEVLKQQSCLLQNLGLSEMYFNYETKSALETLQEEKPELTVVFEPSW

Compound	EC50 [nM]
Oc1cc(C(F)(F)F)ccc1-c1nnc(N2CCC(O)(C(F)(F)F)C2)c2ncccc12 (racemic) [Example 27, (R and S)-1-(5-(2-hydroxy-4-(trifluoromethyl)phenyl)pyrido [2,3-d]pyridazin-8-yl)-3-(trifluoromethyl)pyrrolidin-3-ol]	1230
Oc1cc(C(F)(F)F)ccc1-c1nnc(N2CCC(O)(C(F)F)C2)c2ncccc12 (racemic) [Example 28, (R and S)-3-(difluoromethyl)-1-(5-(2-hydroxy-4-(trifluoromethyl)phenyl)pyrido [2,3-d]pyridazin-8-yl)pyrrolidin-3-ol]	447
Oc1cc(C(F)(F)F)ccc1-c1nnc(N2CCC3(CCCO3)C2)c2ncccc12 (racemic) [Example 29, (R and S)-2-(8-(1-oxa-7-azaspiro[4.4]nonan-7-yl)pyrido[2,3-d]pyridazin-5-yl)-5-(trifluoromethyl)phenol]	353
Oc1cc(C(F)(F)F)ccc1-c1nnc(N2CCC(O)(c3ccccc3)C2)c2ncccc12 (racemic) [Example 38, (R and S)-1-(5-(2-hydroxy-4-(trifluoromethyl)phenyl)pyrido [2,3-d]pyridazin-8-yl)-3-phenylpyrrolidin-3-ol]	1600
Oc1cc(C(F)(F)F)ccc1-c1nnc(N2CC(O)C(F)(F)C2)c2ncccc12 (racemic) [Example 43, (R and S)-4,4-difluoro-1-(5-(2-hydroxy-4-(trifluoromethyl)phenyl)pyrido [2,3-d]pyridazin-8-yl)pyrrolidin-3-ol]	482
Oc1cc(C(F)(F)F)ccc1-c1nnc(N2CC(O)C3(CC3)C2)c2ncccc12 (racemic) [Example 44, (R and S)-5-(5-(2-hydroxy-4-(trifluoromethyl)phenyl)pyrido [2,3-d]pyridazin-8-yl)-5-azaspiro[2.4]heptan-7-ol]	591
Oc1cc(C(F)(F)F)ccc1-c1nnc(N2CCC(O)(C3CC3)C2)c2ncccc12 (racemic) [Example 45, (R and S)-3-cyclopropyl-1-(5-(2-hydroxy-4-(trifluoromethyl)phenyl)pyrido [2,3-d]pyridazin-8-yl)pyrrolidin-3-ol]	1180
CN(C)CC1(O)CCN(c2nnc(-c3ccc(C(F)(F)F)cc3O)c3cccnc23)C1 (racemic) [Example 46, (R and S)-3-((dimethylamino)methyl)-1-(5-(2-hydroxy-4-(trifluoromethyl)phenyl)pyrido [2,3-d]pyridazin-8-yl)pyrrolidin-3-ol]	831
CCC1(O)CCN(c2nnc(-c3ccc(C(F)(F)F)cc3O)c3cccnc23)C1 (racemic) [Example 47, (R and S)-3-ethyl-1-(5-(2-hydroxy-4-(trifluoromethyl)phenyl)pyrido [2,3-d]pyridazin-8-yl)pyrrolidin-3-ol]	494
CC1(CO)CCN(c2nnc(-c3ccc(C(F)(F)F)cc3O)c3cccnc23)C1 (racemic) [Example 48, (R and S)-2-(8-(3-(hydroxymethyl)-3-methylpyrrolidin-1-yl)pyrido[2,3-d]pyridazin-5-yl)-5-(trifluoromethyl)phenol]	411
C[C@]1(O)CCN(c2nnc(-c3ccc(C(F)(F)F)cc3O)c3cnccc23)C1 (single isomer, unassigned) [Example 1]	356
C[C@]1(O)CCN(c2nnc(-c3ccc(C(F)(F)F)cc3O)c3ccncc23)C1 (single isomer, unassigned) [Example 2]	49
C[C@@H]1CN(c2nnc(-c3ccc(C(F)(F)F)cc3O)c3ccncc23)C[C@H](C)[C@]1(C)O (single isomer, unassigned) [Example 16]	70
C[C@@H]1CN(c2nnc(-c3ccc(C(F)(F)F)cc3O)c3ccncc23)C[C@H](C)[C@H]1O (single isomer, unassigned) [Example 18]	23
Cc1ccc2c(-c3ccc(C(F)(F)F)cc3O)nnc(N3C[C@@H](C)O[C@@H](C)C3)c2c1 (single isomer, unassigned) [Example 20, 2-(4-((cis)-2,6-dimethylmorpholino)-6-methylphthalazin-1-yl)-5-(trifluoromethyl)phenol]	33
CC1CN(c2nnc(-c3ccc(C(F)(F)F)cc3O)c3cccnc23)CC(CO)O1 (single isomer, unassigned) [Example 51, 2-(8-((2R,6R or 2S,6S)-2-(hydroxymethyl)-6-methylmorpholino)pyrido[2,3-d]pyridazin-5-yl)-5-(trifluoromethyl) phenol]	65
CC1CN(c2nnc(-c3ccc(C(F)(F)F)cc3O)c3cccnc23)CC(CO)O1 (single isomer, unassigned) [Example 52, 2-(8-((2S,6S or 2R,6R)-2-(hydroxy-methyl)-6-methyl-morpholino)pyrido[2,3-d]pyridazin-5-yl)-5-(trifluoro-methyl)phenol]	74
C[C@@H]1CN(c2nnc(-c3ccc(C(F)(F)F)cc3OC(F)F)c3cccnc23)C[C@H](C)O1 [Example 3, (cis)-4-(5-(2-(difluoromethoxy)-4-(trifluoromethyl)phenyl)pyrido[2,3-d]pyridazin-8-yl)-2,6-dimethylmorpholine]	891
C[C@@H]1CN(c2nnc(-c3ccc(C(F)(F)F)cc3O)c3ccncc23)C[C@H](C)O1 [Example 4, 2-(4-((cis)-2,6-dimethylmorpholino)pyrido[3,4-d]pyridazin-1-yl)-5-(trifluoromethyl)phenol]	82
C[C@@H]1CN(c2nnc(-c3ccc(C(F)(F)F)cc3O)c3cnccc23)C[C@H](C)O1 [Example 5, 2-(1-((cis)-2,6-dimethylmorpholino)pyrido[3,4-d]pyridazin-4-yl)-5-(trifluoromethyl)phenol]	556
C[C@@H]1CN(c2nnc(-c3ccc(C(F)(F)F)cc3O)c3ncccc23)C[C@H](C)O1 [Example 6, 2-(5-((cis)-2,6-dimethylmorpholino)pyrido[2,3-d]pyridazin-8-yl)-5-(trifluoromethyl)phenol]	1850
C[C@@H]1CN(c2nnc(-c3ccc(C(F)(F)F)cc3OC(F)F)c3ccncc23)C[C@H](C)O1 [Example 7, (cis)-4-(1-(2-(difluoromethoxy)-4-(trifluoromethyl)phenyl)pyrido[3,4-d]pyridazin-4-yl)-2,6-dimethylmorpholine]	570
C[C@@H]1CN(c2nnc(-c3ccc(C(F)(F)F)cc3O)c3ccnnc23)C[C@H](C)O1 [Example 8, 2-(8-((cis)-2,6-dimethylmorpholino)pyridazino[4,5-c]pyridazin-5-yl)-5-(trifluoromethyl)phenol]	515
C[C@@H]1CN(c2nnc(-c3ccc(C(F)(F)F)cc3O)c3cnncc23)C[C@H](C)O1 [Example 9, 2-(4-((cis)-2,6-dimethylmorpholino)pyridazino[4,5-d]pyridazin-1-yl)-5-(trifluoromethyl)phenol]	80
Cc1ccc2c(-c3ccc(C(F)(F)F)cc3O)nnc(N3CC[C@](C)(O)C3)c2n1 [Example 10, (S)-1-(5-(2-hydroxy-4-(trifluoromethyl)phenyl)-2-methylpyrido[2,3-d]pyridazin-8-yl)-3-methylpyrrolidin-3-ol]	60
C[C@@H]1CN(c2nnc(-c3ccc4occc4c3)c3ccncc23)C[C@H](C)O1 [Example 11, (cis)-4-(1-(benzofuran-5-yl)pyrido[3,4-d]pyridazin-4-yl)-2,6-dimethylmorpholine]	750
C[C@]1(O)CCN(c2nnc(-c3ccc(C(F)(F)F)cc3O)c3ccc(C(F)(F)F)nc23)C1 [Example 12, (S)-1-(5-(2-hydroxy-4-(trifluoromethyl)phenyl)-2-(trifluoromethyl)pyrido[2,3-d]pyridazin-8-yl)-3-methylpyrrolidin-3-ol]	621
C[C@@H]1CN(c2nnc(-c3ccc(C(F)(F)F)cc3O)c3cnncc23)C[C@H](C)[C@]1(C)O [Example 13, (3S,4s,5R)-1-(4-(2-hydroxy-4-(trifluoromethyl)phenyl)pyridazino [4,5-d]pyridazin-1-yl)-3,4,5-trimethylpiperidin-4-ol]	264
Cc1cccc2c(-c3ccc(C(F)(F)F)cc3O)nnc(N3C[C@@H](C)O[C@@H](C)C3)c12 [Example 14, 2-(4-((cis)-2,6-dimethylmorpholino)-5-methylphthalazin-1-yl)-5-(trifluoromethyl)phenol]	734
Cc1cccc2c(N3C[C@@H](C)O[C@@H](C)C3)nnc(-c3ccc(C(F)(F)F)cc3O)c12 [Example 15, 2-(4-((cis)-2,6-dimethylmorpholino)-8-methylphthalazin-1-yl)-5-(trifluoromethyl)phenol]	3680
